In patent US20260305610A1, “TRIAZOLE COMPOUND, AND PREPARATION METHOD THEREFOR, HERBICIDAL COMPOSITION AND USE THEREOF” (QINGDAO KINGAGROOT CHEMICAL COMPOUND CO., LTD., priority 2023, published 2026):

Tests used:
Assay type in all cases: in vivo
weeds = experiment: Activity assay of compositions: soil sealing treatment (S), fresh weight inhibition and combined effect (Gowing method); conditions: 21 d
Experimental: The required active ingredient B was purchased from a reagent company or a technical material manufacturer or synthesized by a conventional method. The technical materials were all dissolved with acetone solvents and diluted with aqueous solution of 0.1% Tween-80 emulsifier, which should be used immediately after dilution.
• Weeds were cultivated in a controllable sunlight greenhouse at 20 to 30° C., in natural light, and with relative humidity of 57% to 72%. […] The test soil was quantitatively filled to ¾ of the pot, and then watered from the bottom of the pot to completely wet the soil to saturation. The test weed seeds were accelerated to just germinate, and then evenly and quantitatively broadcasted on the soil surface, covered with 0.5-1 cm soil according to the sizes of the seeds, and ready for use 72 hours after sowing.
Each treatment was repeated 4 times. Four pots with 20 weed seeds sowed per pot were treated each time.
The well-sowed test materials were evenly placed on a platform with an area of 0.5 m^2, and foliage spraying was carried out by the 3WP-2000-type walking spray tower at a dosage of 450 kg/ha and a spray pressure of 0.3 MPa. After all the solution was sprayed, the air valve was closed. And 30 seconds later, the door of the spray tower was opened, and the nutritional bowl was taken out. Next, the air valve was opened, and the spray tube was cleaned by spraying 50 ml of water.
A method for investigating absolute numbers was employed. Whole seedlings of survival weeds were cut off along the soil surface with a blade, and the fresh weight of the weeds was weighed using an analytical balance. For dead weeds, the fresh weight thereof was zero.
The investigation was performed 21 days after the treatment for once in total.
The theoretical fresh weight inhibition rate of a mixed combination of each treatment was calculated by the Gowing method (E0=X+Y−X*Y/100). Then compared with the measured inhibition rate (E), the type of the combined effect of the combination of the two on weeds was evaluated, which was a synergistic effect when E−E0>10%; an antagonistic effect when E−E0<−10%; an additional effect when −10%≤E−E0≤10%. An optimal ratio was determined according to factors such as the actual control effects, characteristics of herbicides, balance of the formulation, etc. In the formula, X represents the fresh weight inhibition rate of the active ingredient A in a dosage of P; Y represents the fresh weight inhibition rate of the active ingredient B in a dosage of Q. The statistical results are shown in Table 4.

major crops = experiment: Pre-emergence test experiment (crops); parameters: key: 9: completely dead; 8: growth control rate is greater than or equal to 90% and less than 100%; 7: growth control rate is greater than or equal to 80% and less than 90%; 6: growth control rate is greater than or equal to 70% and less than 80%; growth control rate is greater than or equal to 50% and less than 70%; 4: growth control rate is greater than or equal to 30% and less than 50%; growth control rate is greater than or equal to 20% and less than 30%; growth control rate is greater than or equal to 10% and less than 20%; growth control rate is less than 10%; 0: no effect; conditions: 30 g a.i./ha
[1] = test system: monocotyledonous and dicotyledonous weeds; experiment: Pre-emergence test experiment (weeds); parameters: key: 9: completely dead; 8: growth control rate is greater than or equal to 90% and less than 100%; 7: growth control rate is greater than or equal to 80% and less than 90%; 6: growth control rate is greater than or equal to 70% and less than 80%; growth control rate is greater than or equal to 50% and less than 70%; 4: growth control rate is greater than or equal to 30% and less than 50%; growth control rate is greater than or equal to 20% and less than 30%; growth control rate is greater than or equal to 10% and less than 20%; growth control rate is less than 10%; 0: no effect; conditions: 30 g a.i./ha
[2] = Commelina communis, B 30 g a.i./ha
[3] = Commelina communis, B 60 g a.i./ha
[4] = Eclipta prostrata, B 150 g a.i./ha

With `COC(=O)CCNC(=O)C(C)Sc1cc(-n2c(=O)cc(C(F)(F)F)n(C)c2=O)c(F)cc1Cl` (centres unmarked) [Tiafenacil] the “Control effect of B applied alone in a corresponding dose (%)” value (shortened to “Control effect of B applied alone … (%)”) (weeds; [2]) was 48.2% and the “Control effect of B applied alone … (%)” value (weeds; [3]) was 61.4%.
With `COC(=O)[C@@H](C)O/N=C/c1cc(-n2c(=O)cc(C(F)(F)F)n(C)c2=O)c(F)cc1Cl` the “Control effect of B applied alone … (%)” value (weeds; [2]) was 28.5% and the “Control effect of B applied alone … (%)” value (weeds; [3]) was 46.1%.
For `C#CCN1C(=O)COc2cc(F)c(N3C(=O)C4=C(CCCC4)C3=O)cc21` [Flumioxazin], the “Control effect of B applied alone … (%)” value (weeds; Commelina communis, B 15 g a.i./ha) was 35.0% and the “Control effect of B applied alone … (%)” value (weeds; [2]) was 50.6%.
With `CC1(C)CON(Cc2ccc(Cl)cc2Cl)C1=O` [Bixlozone] the “Control effect of B applied alone … (%)” value (weeds; Lolium multiflorum, B 75 g a.i./ha) was 50.2% and the “Control effect of B applied alone … (%)” value (weeds; Lolium multiflorum, B 150 g a.i./ha) was 70.0%.
For `CCCOCCN(C(=O)CCl)c1c(CC)cccc1CC` [Pretilachlor], the “Control effect of B applied alone … (%)” value (weeds; Eclipta prostrata, B 75 g a.i./ha) was 38.4% and the “Control effect of B applied alone … (%)” value (weeds; [4]) was 68.3%.
`CCN(CC)C(=O)C(C)Oc1cccc2ccccc12` (centres unmarked) [Napropamide] was tested, and the “Control effect of B applied alone … (%)” value (weeds; Descurainia sophia, B 150 g a.i./ha) was 38.6% and the “Control effect of B applied alone … (%)” value (weeds; Descurainia sophia, B 300 g a.i./ha) was 55.7%.
In the case of `CCCc1ccc2nc(Cl)c(S(=O)(=O)NC(=O)Nc3nc(OC)cc(OC)n3)n2n1` [Propyrisulfuron], the “Control effect of B applied alone … (%)” value (weeds; Eclipta prostrata, B 7.5 g a.i./ha) was 42.8% and the “Control effect of B applied alone … (%)” value (weeds; Eclipta prostrata, B 15 g a.i./ha) was 63.0%.
With `CN(C(=O)COc1nc2ccccc2s1)c1ccccc1` [Mefenacet] the “Control effect of B applied alone … (%)” value (weeds; [4]) was 40.6% and the “Control effect of B applied alone … (%)” value (weeds; Eclipta prostrata, B 300 g a.i./ha) was 69.7%.
For `CC(C)C12CCC(C)(O1)C(OCc1c(F)cccc1Br)C2` (centres unmarked), the “Control effect of B applied alone … (%)” value (weeds; Lolium multiflorum, B 30 g a.i./ha) was 55.2% and the “Control effect of B applied alone … (%)” value (weeds; Lolium multiflorum, B 60 g a.i./ha) was 70.4%.
In the case of `CS(=O)(=O)c1ccc(C(=O)C2C(=O)CCCC2=O)c(Cl)c1COCC1CCCO1` (centres unmarked) [Tefuryltrione], the “Control effect of B applied alone … (%)” value (weeds; Ammannia arenaria, B 7.5 g a.i./ha) was 32.9% and the “Control effect of B applied alone … (%)” value (weeds; Ammannia arenaria, B 15 g a.i./ha) was 55.2%.
For `Cc1ccc(-n2cnc(C(F)(F)C(F)(F)F)n2)nc1Oc1cncc(C(F)(F)F)c1` [Compound 15], the “Pre-emergence plant damage level (growth control rate) on Corn” value (from here on “Pre-emergence plant damage level … on Corn”) (major crops) was 0, the “Pre-emergence plant damage level (growth control rate) on Cotton” value (shortened to “Pre-emergence plant damage level … on Cotton”) (major crops) was 0 and the “Pre-emergence plant damage level (growth control rate) on Soybean” value (from here on “Pre-emergence plant damage level … on Soybean”) (major crops) was 0. For the same compound, the “Pre-emergence activity level (growth control rate) on Amaranthus retroflexus” value [1] was 9, the “Pre-emergence activity level (growth control rate) on Descurainia sophia” value [1] was 9 and the “Pre-emergence activity level (growth control rate) on Digitaria sanguinalis” value [1] was 8 (growth control rate is greater than or equal to 90% and less than 100%). The “Pre-emergence activity level (growth control rate) on Setaria viridis” value [1] was 9, the “Pre-emergence activity level (growth control rate) on Solanum nigrum” value [1] was 8 (growth control rate is greater than or equal to 90% and less than 100%) and the “Pre-emergence activity level (growth control rate) on Veronica” value (from here on “Pre-emergence activity level … on Veronica”) [1] was 9.
For `Cc1ccc(-n2cnc(C(F)(F)C(F)(F)F)n2)nc1Oc1cccc(C(F)(F)F)c1` [Compound 14], the “Pre-emergence plant damage level … on Corn” value (major crops) was 0, the “Pre-emergence plant damage level … on Cotton” value (major crops) was 0 and the “Pre-emergence plant damage level … on Soybean” value (major crops) was 0. For the same compound, the “Pre-emergence activity level (growth control rate) on Amaranthus retroflexus” value [1] was 9, the “Pre-emergence activity level (growth control rate) on Descurainia sophia” value [1] was 9 and the “Pre-emergence activity level (growth control rate) on Digitaria sanguinalis” value [1] was 8 (growth control rate is greater than or equal to 90% and less than 100%). For the same compound, the “Pre-emergence activity level (growth control rate) on Setaria viridis” value [1] was 9, the “Pre-emergence activity level (growth control rate) on Solanum nigrum” value [1] was 9 and the “Pre-emergence activity level … on Veronica” value [1] was 9.
`Cc1ccc(-n2cnc(C(F)(F)F)n2)nc1Oc1cccc(Cl)c1` [Compound 40] was tested, and the “Pre-emergence plant damage level … on Corn” value (major crops) was 0, the “Pre-emergence plant damage level … on Cotton” value (major crops) was 0 and the “Pre-emergence plant damage level … on Soybean” value (major crops) was 0. For the same compound, the “Pre-emergence activity level (growth control rate) on Amaranthus retroflexus” value [1] was 9, the “Pre-emergence activity level (growth control rate) on Descurainia sophia” value [1] was 9 and the “Pre-emergence activity level (growth control rate) on Digitaria sanguinalis” value [1] was 7 (growth control rate is greater than or equal to 80% and less than 90%). For the same compound, the “Pre-emergence activity level (growth control rate) on Setaria viridis” value [1] was 7 (growth control rate is greater than or equal to 80% and less than 90%), the “Pre-emergence activity level (growth control rate) on Solanum nigrum” value [1] was 7 (growth control rate is greater than or equal to 80% and less than 90%) and the “Pre-emergence activity level … on Veronica” value [1] was 9.
